Ten molecules from patent US11440923B2, “Substituted macrocyclic indole derivatives” (Bayer Aktiengesellschaft, priority 2017, dated 2022) can be followed below.

The subject of one test is SUDHL10 cells. Nature of the test: Antiproliferation assay SUDHL10 (Assay 7). The test is classed as cell-based. As to conditions: 72 h, CellTiter-Glo, read-out: Antiproli SUDHL10 IC50 (median). As to the method:
(§1) Assessment of the Anti-Proliferative Effect of Compounds in Different Cell Lines
(§2) The impact of compounds on the proliferation of different cell lines was assessed using the CellTiter-Glo® Luminescent Cell Viability reagent from Promega (G7573).
(§3) In parallel, cells were plated in a reference (day 0) plate for time zero determination. Cells were incubated in a humidified incubator at 37° C. overnight.
(§4) Rim wells were excluded. The cells were incubated for 72 h hours in a humidified incubator at 37° C. The day 0 plate was measured by adding 30 μL/well of CTG solution (CellTiter-Glo® Luminescent Cell Viability reagent, Promega G7573) to time zero wells in the reference plate followed by a 10 minutes incubation and luminescence reading at 0.1 ms. using the PHERAstar FS microplate reader (BMG Labtech).
(§5) After 72 h incubation, the treated plates were measured in the same way as the day 0 plate mentioned above. The Bella DRC Master Sheet was used to calculate IC50s, with CI=day 0 values and C0=DMSO control values.

The target of a further test is MCL-1 (Homo sapiens (Human), UniProt Q07820, K194A/K197A/R201A). The test can be described thus: Protein-compound interaction assay (SPR assay, Assay 9). The test is classed as binding. As to conditions: for Kd: KD (geometric mean), SPR, 25° C.; for koff: read-out: koff (geometric mean), SPR, 25° C.; for kon: read-out: kon (geometric mean), SPR, 25° C.
In a further test the test system is MV-4-11 cells. Nature of the test: Antiproliferation assay MV-4-11 (Assay 7). Type of test: cell-based. As to conditions: Homo sapiens, MV4-11, 72 h, CellTiter-Glo, read-out: Antiproli MV-4-11 IC50 median. The essentials: (§6)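 Cells were plated overnight at 37° C, then compound-treated for 72 h. Viability was measured by CellTiter-Glo luminescence.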
(ATP-based viability assays read luminescence as a measure of living cells.)

Test [1] has as its target MCL1 protein / biotinylated BIM BH3 peptide in RKO cells (Homo sapiens (Human), UniProt Q07820). The test can be described thus: PIxEL: protein-protein interaction in permeabilized cells by ELISA (Assay 5). The settings on record: PIxEL IC50 (median). Type of test: cell-based. The essentials: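 Digitonin (0.002%)-permeabilized RKO cells in MEB buffer pH 7.5 were treated with compound (3-fold series, top 30 μM) plus 0.2 μM biotin-BIM BH3 peptide for 1 h at room temperature. Lysates were captured on anti-MCL1 ELISA plates and bound peptide read by streptavidin-HRP luminescence. IC50 came from signal normalized to no-compound and no-cell controls.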

In another test the test system is SNU-389 cells. Nature of the test: Antiproliferation assay SNU-389 (Assay 7). The test is classed as cell-based. As to conditions: 72 h, read-out: Antiproli SNU-389 IC50. In outline: as §6
In a further test the test system is DMS-114 cells. The test can be described thus: Antiproliferation assay DMS-114 (Assay 7). Type of test: cell-based. The settings on record: Homo sapiens, read-out: Antiproli DM-S114 IC50 median. In outline:
as §6

The subject of the next test is SNU-16 cells. Nature of the test: Antiproliferation assay SNU-16 (Assay 7). Type of test: cell-based. The settings on record: Homo sapiens, read-out: Antiproli SNU-16 IC50 median. As to the method:
as §1, §2, §3, §4, §5

[2] abbreviates: DMS-114 cells, 72 h, CellTiter-Glo.

Structures are written as SMILES. Where a name gives a salt, the structure may show the parent alone. Read-outs that look alike come from different tables or passages of the source.

Chain of MCL1 protein / biotinylated BIM BH3 peptide in RKO cells (Q07820 whole entry): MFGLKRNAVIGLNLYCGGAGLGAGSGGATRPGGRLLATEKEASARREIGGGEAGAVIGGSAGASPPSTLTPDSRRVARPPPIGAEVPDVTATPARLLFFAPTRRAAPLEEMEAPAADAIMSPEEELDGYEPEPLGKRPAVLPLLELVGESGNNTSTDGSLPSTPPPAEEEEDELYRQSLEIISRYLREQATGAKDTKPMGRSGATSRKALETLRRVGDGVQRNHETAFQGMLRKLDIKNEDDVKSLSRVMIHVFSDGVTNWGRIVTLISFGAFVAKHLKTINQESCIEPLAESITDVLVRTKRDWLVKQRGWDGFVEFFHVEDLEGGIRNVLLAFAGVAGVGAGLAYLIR
Chain of MCL-1 (Q07820 whole entry K194A/K197A/R201A, looked up): as the sequence (Q07820 whole entry) above, with K194A, K197A, R201A counted along it

For `Cc1c2c(nn1C)C(C)OCCCCn1c(C(=O)O)c(CCCOc3cccc4ccccc34)c3cccc-2c31` (racemic) [Example 1, (rac)-2,3,15-trimethyl-7-[3-(naphthalen-1-yloxy)propyl]-2,10,11,12,13,15-hexahydropyrazolo[4′,3′:9,10][1,6]oxazacycloundecino[8,7,6-hi]indole-8-carboxylic Acid (Mixture of Stereoisomers)], the IC50 in the test with SUDHL10 cells (Homo sapiens, SU-DHL10) came out at 7 µM.

Turning to `Cc1c2c(nn1C)C(CCN1CCOCC1)OCCCCn1c(C(=O)O)c(CCCOc3cccc4ccccc34)c3ccc(F)c-2c31` (racemic) [Example 7, (rac)-4-fluoro-2,3-dimethyl-15-[2-(morpholin-4-yl)ethyl]-7-[3-(naphthalen-1-yloxy)propyl]-2,10,11,12,13,15-hexahydropyrazolo[4′,3′:9,10][1,6]oxazacycloundecino[8,7,6-hi]indole-8-carboxylic Acid], the IC50 with SUDHL10 cells (Homo sapiens, SU-DHL10) is 0.16 µM.

For the molecule `CCc1c2c(nn1C)C(CCN1CCOCC1)OCCCCn1c(C(=O)O)c(CCCOc3cccc4ccccc34)c3ccc(F)c-2c31` (racemic) [Example 10, (rac)-3-ethyl-4-fluoro-2-methyl-15-[2-(morpholin-4-yl)ethyl]-7-[3-(naphthalen-1-yloxy)propyl]-2,10,11,12,13,15-hexahydropyrazolo[4′,3′:9,10][1,6]oxazacycloundecino[8,7,6-hi]indole-8-carboxylic Acid], on MCL-1, the Kd stood at 0.0011 µM, the off-rate (koff) was found to be 0.01 s⁻¹ and the kon turned out to be 9e+06 M⁻¹ s⁻¹. The 50% inhibitory concentration (IC50) in the test on MV-4-11 cells was determined as 0.11 µM. This molecule gave an IC50 in test [1] of 0.325 µM. Besides, the IC50 in the test with SUDHL10 cells (Homo sapiens, SU-DHL10) worked out at 0.14 µM.

Molecule `CCc1c2c(nn1C)C(CCN1CC(F)(F)C1)OCCCCn1c(C(=O)O)c(CCCOc3cccc4cc(F)ccc34)c3ccc(Cl)c-2c31` (single isomer, unassigned; (+)) [Example 78, (+)-4-chloro-15-[2-(3,3-difluoroazetidin-1-yl)ethyl]-3-ethyl-7-{3-[(6-fluoronaphthalen-1-yl)oxy]propyl}-2-methyl-2,10,11,12,13,15-hexahydropyrazolo[4′,3′:9,10][1,6]oxazacycloundecino[8,7,6-hi]indole-8-carboxylic Acid—N-ethylethanamine Salt] came in with a Kd on MCL-1 of 0.00033 µM. The koff on MCL-1 amounted to 0.0012 s⁻¹. For the same molecule, the on-rate (kon) on MCL-1 came out at 3.5e+06 M⁻¹ s⁻¹. Further, the IC50 is 0.0434 µM in test [1]; 0.151 µM in the test on SNU-389 cells (CellTiter-Glo); 0.0885 µM with DMS-114 cells (setting [2]); 0.13 µM with SNU-16 cells (SNU-16, 72 h, CellTiter-Glo).

As to `Cc1c2c(nn1C)C(CCN1CCOCC1)OCCCCn1c(C(=O)O)c(CCCOc3cccc4cc(F)ccc34)c3ccc(F)c-2c31` (single isomer, unassigned; enantiomer 1) [Example 20, 4-fluoro-7-{3-[(6-fluoronaphthalen-1-yl)oxy]propyl}-2,3-dimethyl-15-[2-(morpholin-4-yl)ethyl]-2,10,11,12,13,15-hexahydropyrazolo[4′,3′:9,10][1,6]oxazacycloundecino[8,7,6-hi]indole-8-carboxylic Acid—N-ethylethanamine (Enantiomer 1)], at MCL-1, the Kd was found to be 0.00056 µM. Also, the koff at MCL-1 came out at 0.018 s⁻¹. Besides, the association rate constant (kon) at MCL-1 was found to be 3.2e+07 M⁻¹ s⁻¹. Also, the IC50 is 0.1 µM in test [1]; 0.437 µM in the test with SNU-389 cells; 0.222 µM with DMS-114 cells (DMS-114, 72 h); 0.397 µM in the test on SNU-16 cells (SNU-16, 72 h).

For `CCc1c2c(nn1C)C(CCN1CCOCC1)OCCCCn1c(C(=O)O)c(CCCOc3cccc4cc(F)ccc34)c3ccc(F)c-2c31` (single isomer, unassigned; enantiomer 1) [Example 50, (+)-3-ethyl-4-fluoro-7-{3-[(6-fluoronaphthalen-1-yl)oxy]propyl}-2-methyl-15-[2-(morpholin-4-yl)ethyl]-2,10,11,12,13,15-hexahydropyrazolo[4′,3′:9,10][1,6]oxazacycloundecino[8,7,6-hi]indole-8-carboxylic Acid (Enantiomer 1)], at MCL-1, the equilibrium dissociation constant (Kd) is 0.00036 µM. Also, on MCL-1, the dissociation rate constant (koff) worked out at 0.009 s⁻¹. Moreover, the on-rate (kon) at MCL-1 was found to be 2.5e+07 M⁻¹ s⁻¹. The half-maximal inhibitory concentration (IC50) in test [1] was determined as 0.0368 µM; in the test with SNU-389 cells (CellTiter-Glo), 0.455 µM; with DMS-114 cells (setting [2]), 0.153 µM; with SNU-16 cells (SNU-16, 72 h, CellTiter-Glo), 0.321 µM.

At MCL-1, `CCc1c2c(nn1C)C(CCC1CCOCC1)OCCCCn1c(C(=O)O)c(CCCOc3cccc4cc(F)ccc34)c3ccc(Cl)c-2c31` (single isomer, unassigned; enantiomer 1) [Example 63, (+)-4-chloro-3-ethyl-7-{3-[(6-fluoronaphthalen-1-yl)oxy]propyl}-2-methyl-15-[2-(oxan-4-yl)ethyl]-2,10,11,12,13,15-hexahydropyrazolo[4′,3′:9,10][1,6]oxazacycloundecino[8,7,6-hi]indole-8-carboxylic Acid—N-ethylethanamine Salt (Enantiomer 1)] yielded a Kd of 0.0014 µM. For the same molecule, the off-rate constant (koff) on MCL-1 turned out to be 0.0016 s⁻¹. In addition, on MCL-1, the kon is 1.1e+06 M⁻¹ s⁻¹. Besides, the concentration for half-maximal inhibition (IC50) in test [1] amounted to 0.0142 µM; in the test with SNU-389 cells, 0.183 µM; in the test with DMS-114 cells (DMS-114, 72 h) it was 0.156 µM; in the test on SNU-16 cells (SNU-16, 72 h), 0.276 µM.

In turn, `CCc1c2c(nn1C)C(CCC(C)(C)O)OCCCCn1c(C(=O)O)c(CCCOc3cccc4cc(F)ccc34)c3ccc(Cl)c-2c31` (single isomer, unassigned; enantiomer 1) [Example 75, (+)-4-chloro-3-ethyl-7-{3-[(6-fluoronaphthalen-1-yl)oxy]propyl}-15-(3-hydroxy-3-methylbutyl)-2-methyl-2,10,11,12,13,15-hexahydropyrazolo[4′,3′:9,10][1,6]oxazacycloundecino[8,7,6-hi]indole-8-carboxylic Acid—N-ethylethanamine Salt (Enantiomer 1)] gave an equilibrium dissociation constant (Kd) at MCL-1 of 0.00024 µM. Further, on MCL-1, the off-rate constant (koff) turned out to be 0.0022 s⁻¹. Moreover, the kon at MCL-1 is 9e+06 M⁻¹ s⁻¹. The IC50 in test [1] was 0.0275 µM; in the test with SNU-389 cells (CellTiter-Glo), 0.133 µM; in the test on DMS-114 cells (setting [2]), 0.0774 µM; in the test on SNU-16 cells (SNU-16, 72 h, CellTiter-Glo), 0.152 µM.

On to `Cc1c2c(nn1C)C(C)OCCCCn1c(C(=O)O)c(CCCOc3cccc4ccccc34)c3cccc-2c31` (single isomer, unassigned; stereoisomer 1) [Example 2, 2,3,15-trimethyl-7-[3-(naphthalen-1-yloxy)propyl]-2,10,11,12,13,15-hexahydropyrazolo[4′,3′:9,10][1,6]oxazacycloundecino[8,7,6-hi]indole-8-carboxylic Acid Trifluoroacetic Acid Salt (Stereoisomer 1)], for which, at MCL-1, binding was put at a Kd of 0.011 µM, the koff stood at 0.067 s⁻¹ and the association rate constant (kon) stood at 5.9e+06 M⁻¹ s⁻¹. In addition, the half-inhibitory concentration (IC50) with SUDHL10 cells was determined as 2.9 µM.

Regarding `Cc1c2c(nn1C)C(C)OCCCCn1c(C(=O)O)c(CCCOc3cccc4ccccc34)c3cccc-2c31` (single isomer, unassigned; stereoisomer 2) [Example 3, 2,3,15-trimethyl-7-[3-(naphthalen-1-yloxy)propyl]-2,10,11,12,13,15-hexahydropyrazolo[4′,3′:9,10][1,6]oxazacycloundecino[8,7,6-hi]indole-8-carboxylic Acid Trifluoroacetic Acid Salt (Stereoisomer 2)], in the test with SUDHL10 cells, the IC50 was determined as 7 µM.

What is called IC50 is the concentration needed to halve the response being measured. As usually defined, the Kd is the free concentration of one partner at which half of the binding sites on the other are occupied at equilibrium, for simple one-to-one binding. A higher Kd goes with lower affinity. As usually defined, the koff is the first-order rate constant of dissociation. For orientation: kon means the second-order rate constant of association.
